Results: patent US9272040B2, “5-CNAC as oral delivery agent for parathyroid hormone fragments” (Novartis AG, priority 2001, dated 2016)

Test: Primate administration: plasma hPTH by radioimmunoassay after oral capsule
Type: in vivo
Conditions: Table 2 versus Table 1, Rhesus monkey
Description: The capsules prepared in Example 1 are administered to Rhesus monkeys as follows: four monkeys in a group are each dosed with one capsule prepared as in Example 1 as follows:
The Rhesus monkeys fast overnight prior to dosing and are restrained in chairs fully conscious, for the duration of the study period. The capsules are orally administered via a gavage tube followed by 10 ml of water.
Blood samples are collected at 0, 0.25, 0.5, 0.75, 1, 1.5, 2, 3, 4, 5, and 6 hours after administration. Plasma hPTH levels are determined by radioimmunoassay. The primate plasma PTH results from each group of monkeys are averaged and the maximum mean plasma calculated.

Structure (SMILES): O=C(O)CCCCCCCNC(=O)c1cc(Cl)ccc1O [Capsule 5-CNAC, N-(5-chlorosalicyloyl)-8-aminocaprylic acid]
- effect of carrier on oral delivery of the hPTH fragment: significantly facilitates the oral delivery of the hPTH fragment
